From patent publication US20240409510A1 (priority 2022, published 2024)

target: SARS-CoV-2 3CLpro (Severe acute respiratory syndrome coronavirus 2, UniProt P0DTD1); assay type: biochemical; details: pH 7.5

SMILES | Activity of SARS-CoV-2 MPro inhibitors
CC(C)(C)C(NC(=O)C(Cl)(Cl)Cl)C(=O)N1C[C@H]2[C@@H](C1C(=O)N[C@@H](C[C@@H]1CCNC1=O)C(=O)C(=O)c1ccccc1)C2(C)C (stereo partly shown) [Compound 9] | A (key: A >100 μM; A+ <50 μM; A++ <10 μM; A+++ <1 μM)
CC(C)(C)[C@H](NC(=O)CCc1ccccc1)C(=O)N1Cc2ccccc2C[C@H]1C(=O)N[C@@H](C[C@@H]1CCNC1=O)C(=O)C(=O)c1ccccc1 [Compound 17] | A+++ (key: A >100 μM; A+ <50 μM; A++ <10 μM; A+++ <1 μM)
Cc1cc(C)cc(C(=O)C(=O)[C@H](C[C@@H]2CCNC2=O)NC(=O)C2[C@@H]3[C@H](CN2C(=O)C(NC(=O)C(F)(F)F)C(C)(C)C)C3(C)C)c1 (stereo partly shown) [Compound 10] | A+++ (key: A >100 μM; A+ <50 μM; A++ <10 μM; A+++ <1 μM)
CC(C)(C)C(NC(=O)C(F)(F)F)C(=O)N1C[C@H]2[C@@H](C1C(=O)N[C@@H](C[C@@H]1CCNC1=O)C(=O)C(=O)c1ccc(F)cc1)C2(C)C (stereo partly shown) [Compound 7] | A+++ (key: A >100 μM; A+ <50 μM; A++ <10 μM; A+++ <1 μM)
CC(C)(C)[C@H](NC(=O)/C=C/c1ccccc1)C(=O)N1Cc2ccccc2C[C@H]1C(=O)N[C@@H](C[C@@H]1CCNC1=O)C(=O)C(=O)c1ccccc1 [Compound 18] | A+++ (key: A >100 μM; A+ <50 μM; A++ <10 μM; A+++ <1 μM)
Cc1ccc(C(=O)C(=O)[C@H](C[C@@H]2CCNC2=O)NC(=O)C2[C@@H]3[C@H](CN2C(=O)C(NC(=O)C(F)(F)F)C(C)(C)C)C3(C)C)cc1 (stereo partly shown) [Compound 5] | A+++ (key: A >100 μM; A+ <50 μM; A++ <10 μM; A+++ <1 μM)
CCCC(=O)C(=O)[C@H](C[C@@H]1CCNC1=O)NC(=O)C1[C@@H]2[C@H](CN1C(=O)C(NC(=O)C(F)(F)F)C(C)(C)C)C2(C)C (stereo partly shown) [Compound 11] | A+++ (key: A >100 μM; A+ <50 μM; A++ <10 μM; A+++ <1 μM)
CC(C)(C)C(NC(=O)C(F)(F)F)C(=O)N1C[C@H]2[C@@H](C1C(=O)N[C@@H](C[C@@H]1CCNC1=O)C(=O)C(=O)c1ccccc1)C2(C)C (stereo partly shown) [Compound 3] | A+++ (key: A >100 μM; A+ <50 μM; A++ <10 μM; A+++ <1 μM)
CCCN(CCC)[C@@H]1C[C@@H](C(=O)NC(C[C@@H]2CCNC2=O)C(=O)C(=O)c2ccccc2)N(C(=O)[C@@H](NC(=O)C(F)(F)F)C(C)(C)C)C1 (stereo partly shown) [Compound 1] | A+++ (key: A >100 μM; A+ <50 μM; A++ <10 μM; A+++ <1 μM)
CCCC(=O)C(=O)[C@H](C[C@@H]1CCNC1=O)NC(=O)[C@@H]1Cc2ccccc2CN1C(=O)[C@@H](NC(=O)C(F)(F)F)C(C)(C)C [Compound 14] | A++ (key: A >100 μM; A+ <50 μM; A++ <10 μM; A+++ <1 μM)
CC(C)(C)[C@H](NC(=O)C(Cl)(Cl)Cl)C(=O)N1C[C@H]2[C@@H]([C@H]1C(=O)NC(C[C@@H]1CCNC1=O)C(=O)C(=O)c1ccccc1)C2(C)C (stereo partly shown) [Compound 4] | A++ (key: A >100 μM; A+ <50 μM; A++ <10 μM; A+++ <1 μM)
CC(C)O[C@@H]1C[C@@H](C(=O)NC(C[C@@H]2CCNC2=O)C(=O)C(=O)c2ccccc2)N(C(=O)[C@@H](NC(=O)C(F)(F)F)C(C)(C)C)C1 (stereo partly shown) [Compound 2] | A+++ (key: A >100 μM; A+ <50 μM; A++ <10 μM; A+++ <1 μM)
COc1ccc(C(=O)C(=O)[C@H](C[C@@H]2CCNC2=O)NC(=O)C2[C@@H]3[C@H](CN2C(=O)C(NC(=O)C(F)(F)F)C(C)(C)C)C3(C)C)cc1 (stereo partly shown) [Compound 8] | A+++ (key: A >100 μM; A+ <50 μM; A++ <10 μM; A+++ <1 μM)
COc1ccccc1C(=O)C(=O)[C@H](C[C@@H]1CCNC1=O)NC(=O)C1[C@@H]2[C@H](CN1C(=O)C(NC(=O)C(F)(F)F)C(C)(C)C)C2(C)C (stereo partly shown) [Compound 15] | A+++ (key: A >100 μM; A+ <50 μM; A++ <10 μM; A+++ <1 μM)
CC(C)(C)OC(=O)NC(C(=O)N1C[C@H]2[C@@H](C1C(=O)N[C@@H](C[C@@H]1CCNC1=O)C(=O)C(=O)c1ccc(F)cc1)C2(C)C)C(C)(C)C (stereo partly shown) [Compound 6] | A+++ (key: A >100 μM; A+ <50 μM; A++ <10 μM; A+++ <1 μM)
CCCC(=O)C(=O)[C@H](C[C@@H]1CCNC1=O)NC(=O)[C@@H]1Cc2ccccc2CN1C(=O)[C@@H](NC(=O)OCc1ccncc1)C(C)(C)C [Compound 16] | A+++ (key: A >100 μM; A+ <50 μM; A++ <10 μM; A+++ <1 μM)
CC(C)(C)C(NC(=O)C(F)(F)F)C(=O)N1C[C@H]2[C@@H](C1C(=O)N[C@@H](C[C@@H]1CCNC1=O)C(=O)C(=O)c1ccncc1)C2(C)C (stereo partly shown) [Compound 20] | A++ (key: A >100 μM; A+ <50 μM; A++ <10 μM; A+++ <1 μM)
CC(C)(C)[C@H](NC(=O)C(F)(F)F)C(=O)N1Cc2ccccc2C[C@H]1C(=O)NC(CC1CCCNC1=O)C(=O)C(=O)c1ccccc1 (stereo partly shown) [Compound 13] | A+ (key: A >100 μM; A+ <50 μM; A++ <10 μM; A+++ <1 μM)
CC(C)(C)[C@H](NC(=O)C(F)(F)F)C(=O)N1Cc2ccccc2C[C@H]1C(=O)N[C@@H](C[C@@H]1CCNC1=O)C(=O)C(=O)c1ccccc1 [Compound 12] | A+++ (key: A >100 μM; A+ <50 μM; A++ <10 μM; A+++ <1 μM)
